The target in one assay is T1, CCR4 (Homo sapiens, UniProt P51679).
T1 construct: expressed in transfected cells; host or cells: CHO cell membranes
T1 sequence (P51679 1-360): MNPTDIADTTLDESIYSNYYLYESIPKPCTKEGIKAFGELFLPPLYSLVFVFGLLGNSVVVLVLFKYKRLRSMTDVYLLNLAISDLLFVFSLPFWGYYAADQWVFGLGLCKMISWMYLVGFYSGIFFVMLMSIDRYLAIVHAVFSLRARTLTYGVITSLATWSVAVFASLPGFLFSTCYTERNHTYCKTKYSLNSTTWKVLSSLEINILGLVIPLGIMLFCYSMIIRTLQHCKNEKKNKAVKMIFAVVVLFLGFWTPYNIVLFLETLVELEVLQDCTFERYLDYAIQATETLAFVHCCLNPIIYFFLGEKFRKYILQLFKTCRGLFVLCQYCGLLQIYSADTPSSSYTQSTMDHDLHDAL
Nature of the assay: [35S]-GTPγS SPA binding assay for CCR4 antagonist activity. The class given is biochemical. The conditions noted are these: CCR4 expressing CHO membranes; human MDC at EC80; [35S]-GTPγS competition. The protocol:
[35S]-GTPγS SPA Binding Assays for CCR4 Antagonist Activity
Antagonist potency was determined by a radioligand [35S]-GTPγS competition assay. Briefly, CCR4 expressing CHO membranes were homogenised by passing through a 23G needle. These membranes were then adhered to WGA-coated Leadseeker SPA beads in assay buffer (20 mM HEPES, 10 mM MgCl2, 100 mM NaCl, 0.05% BSA, 40 ug/ml Saponin and pH adjusted to 7.4 using KOH 5M) to generate a 3 μg/well final assay concentration (FAC) membrane and 250 μg/well FAC bead, solution.
The bead/membrane/[35S]-GTPγS/Agonist suspension was dispensed into white Greiner polypropylene 384-well plates (45 μl/well), containing 0.5 μl of compound. […] Plates were then read on a Viewlux instrument and luminescence was then plotted as a percentage of the maximum inhibitional response elicited by an IC100 of a standard antagonist.
(In general: Binding of GTPγS marks nucleotide exchange on a G protein.)

Another assay has as its system CD4+ CCR4+ T cells. Nature of the assay: Chemokine stimulated increases in cellular F-actin content. The format is cell-based. As to conditions: Homo sapiens, T-cell, 0.5 h; PBMC from normal volunteers; antagonist 30 min at 37° C. before agonist for 15 sec; F-actin content by flow cytometry; read-out: pA2 (converted). The procedure, abridged: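 Human PBMC from citrated volunteer blood, stained for CD4 and CCR4, were pre-incubated with antagonist or vehicle (0.1% DMSO) for 30 min at 37 °C, then stimulated with agonist for 15 s and formaldehyde-fixed. F-actin was stained with phalloidin and read by flow cytometry as CD4+CCR4+ MFI relative to CD4+CCR4− cells.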
(In general: Flow cytometry measures light scatter and fluorescence of single cells or particles in a stream.)

Counter-ions that a name gives are not always drawn.

Results on 23 compounds are retold here after patent publication US8304446B2, “Compounds” (Glaxo Group Limited, priority 2009, dated 2012).

What is called IC50 is the concentration needed to halve the response being measured. The low end stands for greater potency in that assay, the high end for weaker potency in that assay.

On CCR4, `COc1cccc2c1c(NS(=O)(=O)c1ccc(Cl)s1)nn2Cc1cccc(CNC(=O)C2COCCN2)c1` (stereo not shown) [Example 6, N-[(3-{[3-{[(5-chloro-2-thienyl)sulfonyl]amino}-4-(methyloxy)-1H-indazol-1-yl]methyl}phenyl)methyl]-3-morpholinecarboxamide trifluoroacetate] gave an IC50 of 3.98 to 15.8 nM. In addition, in the assay with CD4+ CCR4+ T cells, the Kb is at most 126 nM.

Turning to `O=C(NCc1cccc(Cn2nc(NS(=O)(=O)c3ccc(Cl)s3)c3c(O)cccc32)c1)C1COCCN1` (stereo not shown) [Example 73, N-({3-[(3-{[(5-Chloro-2-thienyl)sulfonyl]amino}-4-hydroxy-1H-indazol-1-yl)methyl]phenyl}methyl)-3-morpholinecarboxamide formate salt], the IC50 on CCR4 is 3.98 to 15.8 nM. Further, in the assay on CD4+ CCR4+ T cells, the Kb is at most 126 nM.

`COc1cccc2c1c(NS(=O)(=O)c1ccc(Cl)s1)nn2Cc1cccc(CNC(=O)C(C)C)c1` [Example 3, N-[(3-{[3-{[(5-chloro-2-thienyl)sulfonyl]amino}-4-(methyloxy)-1H-indazol-1-yl]methyl}phenyl)methyl]-2-methylpropanamide] showed an IC50 on CCR4 of 3.98 to 15.8 nM. In addition, the Kb in the assay with CD4+ CCR4+ T cells is at most 126 nM.

Consider `COc1cccc2c1c(NS(=O)(=O)c1ccc(Cl)s1)nn2Cc1cccc(CNC(=O)[C@H](N)C(C)C)c1` [Example 48, N^1-[(3-{[3-{[(5-Chloro-2-thienyl)sulfonyl]amino}-4-(methyloxy)-1H-indazol-1-yl]methyl}phenyl)methyl]-D-valinamide], for which the IC50 on CCR4 is 3.98 to 15.8 nM. In addition, the Kb in the assay on CD4+ CCR4+ T cells is at most 126 nM.

As for `CN[C@H](C)C(=O)NCc1cccc(Cn2nc(NS(=O)(=O)c3ccc(Cl)s3)c3c(OC)cccc32)c1` [Example 10, N^1-[(3-{[3-{[(5-chloro-2-thienyl)sulfonyl]amino}-4-(methyloxy)-1H-indazol-1-yl]methyl}phenyl)methyl]-N^2-methyl-D-alaninamide hydrochloride], the IC50 on CCR4 was 3.98 to 15.8 nM. Besides, the Kb in the assay on CD4+ CCR4+ T cells is at most 126 nM.

`COc1cccc2c1c(NS(=O)(=O)c1ccc(Cl)s1)nn2Cc1cccc(CNC(=O)[C@H]2CC(F)(F)CN2)c1` [Example 55, N-[(3-{[3-{[(5-Chloro-2-thienyl)sulfonyl]amino}-4-(methyloxy)-1H-indazol-1-yl]methyl}phenyl)methyl]-4,4-difluoro-D-prolinamide trifluoroacetate] had an IC50 on CCR4 of 3.98 to 15.8 nM. Also, the Kb in the assay on CD4+ CCR4+ T cells is at most 126 nM.

On CCR4, `COc1cccc2c1c(NS(=O)(=O)c1ccc(Cl)s1)nn2Cc1cccc(CNC(=O)C2COCCN2C)c1` (single isomer, unassigned; enantiomer 1) [Example 124, N-[(3-{[3-{[(5-Chloro-2-thienyl)sulfonyl]amino}-4-(methyloxy)-1H-indazol-1-yl]methyl}phenyl)methyl]-4-methyl-3-morpholinecarboxamide Enantiomer 1] showed a half-inhibitory concentration (IC50) of 3.98 to 15.8 nM. Moreover, the Kb with CD4+ CCR4+ T cells was at most 126 nM.

`COc1cccc2c1c(NS(=O)(=O)c1ccc(Cl)s1)nn2Cc1cccc(CNC(=O)CC(N)=O)c1` [Example 21, N-[(3-{[3-{[(5-chloro-2-thienyl)sulfonyl]amino}-4-(methyloxy)-1H-indazol-1-yl]methyl}phenyl)methyl]propanediamide] gave a half-maximal inhibitory concentration (IC50) at CCR4 of 3.98 to 15.8 nM. Moreover, the Kb in the assay on CD4+ CCR4+ T cells is at most 126 nM.

On CCR4, `COc1cccc2c1c(NS(=O)(=O)c1ccc(Cl)s1)nn2Cc1cccc(CNC(=O)C(C)(C)N)c1` [Example 127, N^1-[(3-{[3-{[(5-Chloro-2-thienyl)sulfonyl]amino}-4-(methyloxy)-1H-indazol-1-yl]methyl}phenyl)methyl]-2-methylalaninamide] gave an IC50 of 3.98 to 15.8 nM.

At CCR4, `COc1cccc2c1c(NS(=O)(=O)c1ccc(Cl)s1)nn2Cc1cccc(CNC(=O)CCCC(=O)O)c1` [Example 139, 5-{[(3-{[3-{[(5-Chloro-2-thienyl)sulfonyl]amino}-4-(methyloxy)-1H-indazol-1-yl]methyl}phenyl)methyl]amino}-5-oxopentanoic acid] gave a half-maximal inhibitory concentration (IC50) of 3.98 to 15.8 nM.

On CCR4, `COc1cccc2c1c(NS(=O)(=O)c1ccc(Cl)s1)nn2Cc1cccc(CNC(=O)[C@@H](N)CO)c1` [Example 102, N^1-[(3-{[3-{[(5-Chloro-2-thienyl)sulfonyl]amino}-4-(methyloxy)-1H-indazol-1-yl]methyl}phenyl)methyl]-L-serinamide] had an IC50 of 3.98 to 15.8 nM.

At CCR4, `COc1c(F)ccc2c1c(NS(=O)(=O)c1ccc(Cl)s1)nn2Cc1cccc(CNC(C)=O)c1` [Example 134, N-[(3-{[3-{[(5-Chloro-2-thienyl)sulfonyl]amino}-5-fluoro-4-(methyloxy)-1H-indazol-1-yl]methyl}phenyl)methyl]acetamide] showed an IC50 of 3.98 to 15.8 nM.

At CCR4, `COc1cccc2c1c(NS(=O)(=O)c1ccc(C)s1)nn2Cc1ccc(CNC(=O)[C@H]2COCCN2)cc1` [Example 120, (3R)—N-({4-[(4-(methyloxy)-3-{[(5-methyl-2-thienyl)sulfonyl]amino}-1H-indazol-1-yl)methyl]phenyl}methyl)-3-morpholinecarboxamide trifluoroacetate] showed an IC50 of 100 to 398 nM.

In turn, `COc1cccc2c1c(NS(=O)(=O)c1cccs1)nn2Cc1cccc(CNC(C)=O)c1` [Example 116, N-{[3-({4-(Methyloxy)-3-[(2-thienylsulfonyl)amino]-1H-indazol-1-yl}methyl)phenyl]methyl}acetamide] showed an IC50 on CCR4 of 100 to 398 nM.

`COc1cccc2c1c(NS(=O)(=O)c1ccc(Cl)s1)nn2Cc1cccc(CNC(=O)[C@H]2CC[C@H](C(=O)O)CC2)c1` [Example 143, trans-4-({[(3-{[3-{[(5-Chloro-2-thienyl)sulfonyl]amino}-4-(methyloxy)-1H-indazol-1-yl]methyl}phenyl)methyl]amino}carbonyl)cyclohexanecarboxylic acid]: the IC50 on CCR4 is 3.98 to 15.8 nM.

In the case of `COc1cccc2c1c(NS(=O)(=O)c1ccc(Cl)s1)nn2Cc1cccc(CNC(=O)c2ccc(C(=O)O)cc2)c1` [Example 142, 4-({[(3-{[3-{[(5-Chloro-2-thienyl)sulfonyl]amino}-4-(methyloxy)-1H-indazol-1-yl]methyl}phenyl)methyl]amino}carbonyl)benzoic acid], at CCR4, the concentration for half-maximal inhibition (IC50) was 3.98 to 15.8 nM.

As for `CC(=O)NCc1cccc(Cn2nc(NS(=O)(=O)c3ccc(Cl)s3)c3c(CO)cccc32)c1` [Example 148, N-[(3-{[3-{[(5-Chloro-2-thienyl)sulfonyl]amino}-4-(hydroxymethyl)-1H-indazol-1-yl]methyl}phenyl)methyl]acetamide], the IC50 on CCR4 is 3.98 to 15.8 nM.

Turning to `CC(O)c1cccc2c1c(NS(=O)(=O)c1ccc(Cl)s1)nn2Cc1cccc(CNC(=O)[C@H]2COCCN2)c1` (stereo partly drawn) [Example 152, (3R)—N-[(3-{[3-{[(5-Chloro-2-thienyl)sulfonyl]amino}-4-(1-hydroxyethyl)-1H-indazol-1-yl]methyl}phenyl)methyl]-3-morpholinecarboxamide formate salt], at CCR4, the concentration for half-maximal inhibition (IC50) was 3.98 to 15.8 nM.

`COc1cccc2c1c(NS(=O)(=O)c1ccc(Cl)s1)nn2Cc1cccc(CNC(=O)CCCCCCC(=O)O)c1` [Example 144, 8-{[(3-{[3-{[(5-Chloro-2-thienyl)sulfonyl]amino}-4-(methyloxy)-1H-indazol-1-yl]methyl}phenyl)methyl]amino}-8-oxooctanoic acid] showed a half-inhibitory concentration (IC50) on CCR4 of 3.98 to 15.8 nM.

As for `COc1cccc2c1c(NS(=O)(=O)c1ccc(Cl)s1)nn2Cc1cccc(CNC(=O)CCC(=O)O)c1` [Example 138, 4-{[(3-{[3-{[(5-Chloro-2-thienyl)sulfonyl]amino}-4-(methyloxy)-1H-indazol-1-yl]methyl}phenyl)methyl]amino}-4-oxobutanoic acid], the IC50 at CCR4 was 3.98 to 15.8 nM.

`CC(O)c1cccc2c1c(NS(=O)(=O)c1ccc(Cl)s1)nn2Cc1cccc(CNC(=O)[C@@H]2COCCN2)c1` (stereo partly drawn) [Example 153, (3S)—N-[(3-{[3-{[(5-Chloro-2-thienyl)sulfonyl]amino}-4-(1-hydroxyethyl)-1H-indazol-1-yl]methyl}phenyl)methyl]-3-morpholinecarboxamide formate salt] showed an IC50 on CCR4 of 3.98 to 15.8 nM.

As for `CC(C)(O)c1cccc2c1c(NS(=O)(=O)c1ccc(Cl)s1)nn2Cc1cccc(CNC(=O)[C@@H]2COCCN2)c1` [Example 156, (3S)—N-[(3-{[3-{[(5-Chloro-2-thienyl)sulfonyl]amino}-4-(1-hydroxy-1-methylethyl)-1H-indazol-1-yl]methyl}phenyl)methyl]-3-morpholinecarboxamide], the IC50 on CCR4 is 100 to 398 nM.

The compound `CC(=O)NCc1cccc(Cn2nc(NS(=O)(=O)c3ccc(Cl)s3)c3c(C(C)O)cccc32)c1` (stereo not shown) [Example 149, N-[(3-{[3-{[(5-Chloro-2-thienyl)sulfonyl]amino}-4-(1-hydroxyethyl)-1H-indazol-1-yl]methyl}phenyl)methyl]acetamide] gave an IC50 at CCR4 of 3.98 to 15.8 nM.
